From patent US6358947B1 (American Home Products Corporation, priority 1999, dated 2002)

Assays:
Assay type in all cases: cell-based
[1] = target: T1, hGR (Homo sapiens, UniProt P04150); assay: Cotransfection assay, GR antagonist; conditions: read-out: GR Potency Antag
T1 sequence (P04150 1-777): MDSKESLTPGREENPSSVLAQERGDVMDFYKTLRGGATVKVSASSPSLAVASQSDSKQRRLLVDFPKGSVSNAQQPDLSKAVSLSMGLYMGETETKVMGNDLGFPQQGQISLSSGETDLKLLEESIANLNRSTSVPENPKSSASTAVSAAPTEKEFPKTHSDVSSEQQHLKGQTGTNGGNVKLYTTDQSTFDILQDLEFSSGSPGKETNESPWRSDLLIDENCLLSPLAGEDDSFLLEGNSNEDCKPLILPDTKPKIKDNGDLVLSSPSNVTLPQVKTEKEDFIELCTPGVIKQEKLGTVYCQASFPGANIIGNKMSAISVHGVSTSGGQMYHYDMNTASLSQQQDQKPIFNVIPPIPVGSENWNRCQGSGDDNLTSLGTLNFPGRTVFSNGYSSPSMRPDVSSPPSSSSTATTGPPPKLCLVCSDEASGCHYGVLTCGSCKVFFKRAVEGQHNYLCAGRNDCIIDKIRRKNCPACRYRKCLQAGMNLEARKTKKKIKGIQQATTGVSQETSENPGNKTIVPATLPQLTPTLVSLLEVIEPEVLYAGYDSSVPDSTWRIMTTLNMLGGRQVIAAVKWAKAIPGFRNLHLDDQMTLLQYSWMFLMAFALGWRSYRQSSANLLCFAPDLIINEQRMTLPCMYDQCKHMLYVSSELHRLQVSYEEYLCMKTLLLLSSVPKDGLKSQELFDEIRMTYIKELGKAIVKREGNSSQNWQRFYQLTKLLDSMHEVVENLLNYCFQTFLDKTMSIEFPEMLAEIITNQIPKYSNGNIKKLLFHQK
Description: (§1) The cotransfection assay provides a method for identifying functional agonists and partial agonists that mimic, or antagonists that inhibit, the effect of native hormones, and for quantifying their activity for responsive intracellular receptor (IR) proteins. In this regard, the cotransfection assay mimics an in vivo system in the laboratory. Importantly, activity in the cotransfection assay correlates very well with known in vivo activity, such that the cotransfection assay functions as a qualitative and quantitative predictor of a tested compound's in vivo pharmacology.
(§2) In the cotransfection assay, a cloned cDNA for an IR (e.g., human PR, AR or GR) under the control of a constitutive promoter (e.g., the SV 40 promoter) is introduced by transfection (a procedure to induce cells to take up foreign genes) into a background cell substantially devoid of endogenous IRs. This introduced gene directs the recipient cells to make the IR protein of interest. A second gene is also introduced (cotransfected) into the same cells in conjunction with the IR gene. This second gene, comprising the cDNA for a reporter protein, such as firefly luciferase (LUC), is controlled by an appropriate hormone responsive promoter containing a hormone response element (HRE). This reporter plasmid functions as a reporter for the transcription-modulating activity of the target IR. Thus, the reporter acts as a surrogate for the products (mRNA, then protein) normally expressed by a gene under control of the target receptor and its native hormone.
(§3) The cotransfection assay can detect small molecule agonists or antagonists of target IRs. Exposing the transfected cells to an agonist ligand compound increases reporter activity in the transfected cells. This activity can be conveniently measured, e.g., by increasing luciferase production, which reflects compound-dependent, IR-mediated increases in reporter transcription. […] Increasing concentrations of a suspected antagonist will decrease the reporter signal (e.g., luciferase production). The cotransfection assay is therefore useful to detect both agonists and antagonists of specific IRs. Furthermore, it determines not only whether a compound interacts with a particular IR, but whether this interaction mimics (agonizes) or blocks (antagonizes) the effects of the native regulatory molecules on target gene expression, as well as the specificity and strength of this interaction.

[2] = target: T2, hER (Homo sapiens, UniProt P03372); assay: Cotransfection assay, ER agonist; conditions: read-out: ER Potency Agon
T2 sequence (P03372 1-595): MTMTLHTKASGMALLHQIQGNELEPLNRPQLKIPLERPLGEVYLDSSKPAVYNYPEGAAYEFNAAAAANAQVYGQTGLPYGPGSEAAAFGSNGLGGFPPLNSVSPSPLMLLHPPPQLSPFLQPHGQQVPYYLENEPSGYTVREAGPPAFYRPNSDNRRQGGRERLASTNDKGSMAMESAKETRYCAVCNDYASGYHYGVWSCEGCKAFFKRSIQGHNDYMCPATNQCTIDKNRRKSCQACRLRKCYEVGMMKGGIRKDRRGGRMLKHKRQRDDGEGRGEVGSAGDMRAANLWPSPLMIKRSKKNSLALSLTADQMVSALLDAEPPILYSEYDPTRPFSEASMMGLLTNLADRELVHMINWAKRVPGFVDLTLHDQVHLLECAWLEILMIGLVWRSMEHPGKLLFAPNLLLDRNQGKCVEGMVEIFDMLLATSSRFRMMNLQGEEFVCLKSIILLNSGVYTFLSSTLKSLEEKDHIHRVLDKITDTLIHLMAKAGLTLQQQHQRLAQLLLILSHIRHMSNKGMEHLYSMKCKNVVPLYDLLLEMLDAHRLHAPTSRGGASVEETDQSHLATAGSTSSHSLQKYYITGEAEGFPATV
Description: as §1, §2, §3

[3] = target: T3, hAR (Homo sapiens, UniProt P10275); assay: Cotransfection assay, AR agonist; conditions: read-out: AR Potency Agon
T3 sequence (P10275 1-920): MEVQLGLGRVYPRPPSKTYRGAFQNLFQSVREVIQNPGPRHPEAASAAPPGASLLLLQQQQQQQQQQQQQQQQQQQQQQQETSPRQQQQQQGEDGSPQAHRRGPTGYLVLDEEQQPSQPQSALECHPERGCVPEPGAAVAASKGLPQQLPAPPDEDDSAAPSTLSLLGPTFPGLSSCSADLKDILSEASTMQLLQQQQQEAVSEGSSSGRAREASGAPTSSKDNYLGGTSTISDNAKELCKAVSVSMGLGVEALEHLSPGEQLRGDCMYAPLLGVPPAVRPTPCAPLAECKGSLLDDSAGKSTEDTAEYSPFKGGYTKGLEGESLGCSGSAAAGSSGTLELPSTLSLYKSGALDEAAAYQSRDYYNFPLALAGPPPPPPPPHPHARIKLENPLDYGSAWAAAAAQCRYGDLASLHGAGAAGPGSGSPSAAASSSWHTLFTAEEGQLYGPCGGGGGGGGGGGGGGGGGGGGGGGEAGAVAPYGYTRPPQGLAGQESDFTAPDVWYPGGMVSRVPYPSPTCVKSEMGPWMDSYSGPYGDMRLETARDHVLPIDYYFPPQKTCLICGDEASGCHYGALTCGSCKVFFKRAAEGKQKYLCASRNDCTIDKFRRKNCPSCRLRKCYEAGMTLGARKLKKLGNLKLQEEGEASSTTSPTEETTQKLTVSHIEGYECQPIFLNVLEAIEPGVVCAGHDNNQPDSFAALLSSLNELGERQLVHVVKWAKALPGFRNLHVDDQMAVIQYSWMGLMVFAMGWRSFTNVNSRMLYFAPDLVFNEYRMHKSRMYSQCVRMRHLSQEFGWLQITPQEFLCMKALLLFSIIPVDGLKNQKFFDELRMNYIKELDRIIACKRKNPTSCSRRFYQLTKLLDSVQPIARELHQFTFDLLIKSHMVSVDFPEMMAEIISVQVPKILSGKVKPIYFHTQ
Description: as §1, §2, §3

[4] = target: T2, hER; assay: Cotransfection assay, ER antagonist; conditions: read-out: ER Potency Antag
Description: as §1, §2, §3

CC1(C)OC(=O)Nc2ccc3c(c21)COc1c(F)cccc1-3 [Compound 14, 7-Fluoro-4,4-dimethyl-5H-chromeno[3,4-f]-1,3-benzo[d]oxazin-2-one]
> 10 µM: IC50 [1] | EC50 [2] | EC50 [3] | IC50 [4]

CC1(C)OC(=O)Nc2ccc3c(c21)COc1c(F)cc(Br)cc1-3 [Compound 20, 9-Bromo-7-fluoro-4,4-dimethyl-5H-chromeno[3,4-f]-1,3-benzo[d]oxazin-2-one]
> 10 µM: IC50 [1] | EC50 [2] | EC50 [3] | IC50 [4]

CC1(C)OC(=O)Nc2ccc3c(c21)COc1c(F)cc(C=O)cc1-3 [Compound 24, 7-fluoro-9-formyl-4,4-dimethyl-5H-chromeno[3,4-f]-1,3-benzo[d]oxazin-2-one]
> 10 µM: IC50 [1] | EC50 [2] | EC50 [3] | IC50 [4]

CC1(C)OC(=O)Nc2ccc3c(c21)COc1c(F)cc(C#N)cc1-3 [Compound 26, 9-cyano-7-fluoro-4,4-dimethyl-5H-chromeno[3,4-f]-1,3-benzo[d]oxazin-2-one]
> 10 µM: IC50 [1] | EC50 [2] | EC50 [3] | IC50 [4]

CC1(C)OC(=O)Nc2ccc3c(c21)COc1c(F)cc(C=NO)cc1-3 [Compound 25, 7-fluoro-9-hydroxyiminomethyl-4,4-dimethyl-5H-chromeno[3,4-f]-1,3-benzo[d]oxazin-2-one]
> 10 µM: IC50 [1] | EC50 [2] | EC50 [3] | IC50 [4]
